Assay results as given in ChEMBL document CHEMBL1138248, “Synthesis and in vitro antiprotozoal activity of bisbenzofuran cations” (J Med Chem, 2007).
pIC50: −log10 of the molar value.

What was measured:
L6 = assay: Cytotoxicity against rat L6 cells
[1] = tested on: Trypanosoma brucei rhodesiense; assay: Antitrypanosomal activity against Trypanosoma brucei rhodesiense STIB900; type: functional, organism-based
Plasmodium falciparum = assay: microbe, parasite or virus in culture; settings: K1
Description: Antimalarial activity against chloroquine-resistant Plasmodium falciparum K1

Leishmania donovani = assay: […] activity against Leishmania donovani (MHOM/SD/62/1S-CL2D) axenic amastigotes; type: functional, organism-based

N=C(N)c1ccc2oc(CCc3cc4cc(C(=N)N)ccc4o3)cc2c1
pIC50 (L6): 4.67 | pIC50 [1]: 8.10 | pIC50 (Plasmodium falciparum): 8.52 | pIC50 (Leishmania donovani): 5.97

C[C@@H]1CC[C@H]2[C@@H](C)C(=O)O[C@@H]3O[C@@]4(C)CC[C@@H]1[C@]32OO4 [ARTEMISININ]
pIC50 (Plasmodium falciparum): 8.22

CCN(CC)CCCC(C)Nc1ccnc2cc(Cl)ccc12 (stereo not drawn) [CHLOROQUINE]
pIC50 (L6): 3.93

N=C(N)c1ccc(OCCCCCOc2ccc(C(=N)N)cc2)cc1 [PENTAMIDINE]
pIC50 (Leishmania donovani): 5.74

COc1cc([C@@H]2c3cc4c(cc3[C@H](O)[C@H]3COC(=O)[C@H]23)OCO4)cc(OC)c1OC [PODOFILOX]
pIC50 (L6): 8.00
